The record followed here is patent US11248016B2, “Glycolipids and pharmaceutical compositions thereof for use in therapy” (THE UNIVERSITY OF NOTTINGHAM, priority 2014, dated 2022).

Data set [1] concerns Neuroblastoma cells (SH-SY5Y). Kind of data set: Polysome profiling (sucrose density). Format: cell-based, human. As to the method: Established techniques such as polysome profiling were used to show a reduction in the number of polyribosomes in neuroblastoma cells after treatment with a compound of Formula II. Polysome peaks from left to right show increasing number of ribosomes associated with mRNA. This peaks at 3 ribosomes after treatment with a compound of Formula II showing rapid and reproducible perturbation of translation. Cells were treated for 20 minutes with a compound of Formula II then harvested and prepared as described in materials and methods. The supernatants were loaded onto 10-50% sucrose gradients and spun for 2 hrs at 38,000 RPM. Gradients were visualised using a UV detector.
The number of ribosomes is indicative of the translation of an mRNA and synthesis of the protein encoded by the mRNA, and treatment with the compound of Formula II decreases the number of ribosomes per message thereby reducing global protein synthesis.
Polysome profiles were obtained using sucrose density centrifugation. Briefly one 15 cm plate of cultured Neuroblastoma cells (SH-SY5Y) were grown per treatment to a confluency of 70%. Cells were then treated with either active or equivalent DMSO vehicle control for 20 min. […] Gradients were fractionated and polysome profiles determined through a continuous monitoring at absorbance 260 nm (described previously Johannes et al. 1999).

The subject of data set [2] is thioredoxin (TXN) 5′UTR. As to the kind of experiment: 5′UTR firefly luciferase reporter assay, TXN. The class given is cell-based, human. The note with it: Neuroblastoma cells; FIG. 3d. As to the method: The 5′UTRs of genes which negatively associate with the progression of Alzheimer's disease—amyloid precursor protein (APP) and beta secretases (BACE) are all inhibited by treatment with a compound of Formula II, whereas the equivalent reporter levels of housekeeping genes actin and thioredoxin (TXN) are not inhibited. […] Neuroblastoma cells were transfected 24 hours prior to treatment with a compound of Formula II. After treatment, cells were prepared as described in the materials and methods. Each experiment represents between 6 and 8 biological repetitions.
Experiments conducted using Firefly luciferase reporter plasmids containing the 5′ untranslated regions (UTRs) of the genes amyloid precursor protein (APP), thioredoxin (TXN) were conducted with reagents and materials described by Bottley et al, 2010. Experiments conducted using Firefly luciferase reporter plasmids containing the 5′ UTRs of the genes EGFR, BACE1 and Actin were conducted with reagents and materials described by Webb, 2012 (http://etheses.nottingham.ac.uk/2724/). […]
(§1) Cells were transfected using FuGene 6 (Roche) following the manufacturer's instructions. The activities of firefly and renilla luciferase in lysates prepared from transfected cells were measured using a commercially available Luciferase reporter assay system (Promega) and light emission was measured over a 10 sec interval using a TECAN luminometer. […]

Data set [3] relates to amyloid precursor protein APP 5′UTR luciferase reporter. As to the kind of experiment: 5′UTR firefly luciferase reporter assay, APP. Format: cell-based, human. On the procedure:
SH-SY5Y cells were simultaneously co-transfected with APP-5′UTR firefly luciferase construct and a Renilla control vector. Luciferase levels were assayed using a Glomax Luminometer and Stop-n-Glo luciferase reagents (standard procedure throughout). The data presented represents 8 biological repetitions and use as the active a semi refined compound of Formula II. Levels of compound were estimated based on amounts of purified compound obtained from fresh tomato tissue.
The 5′UTRs of genes which negatively associate with the progression of Alzheimer's disease—amyloid precursor protein (APP) and beta secretases (BACE) are all inhibited by treatment with a compound of Formula II, whereas the equivalent reporter levels of housekeeping genes actin and thioredoxin (TXN) are not inhibited. […] Neuroblastoma cells were transfected 24 hours prior to treatment with a compound of Formula II. After treatment, cells were prepared as described in the materials and methods. Each experiment represents between 6 and 8 biological repetitions. […]
as §1

The test system of data set [4] is breast cancer cells MCF7. As to the kind of experiment: Cell proliferation, MCF7. The note with it: 96 hours, Formula II only. Format: cell-based. On the procedure: Growth of MCF7 cell lines were slowed by the treatment with a compound of Formula II. Experiment represents 6 biological repetitions, Error=S.E.M.
Prior to treatment cells were cultured to an appropriate confluency in 96 well tissue culture plates (Fisher). Cells remained either supplemented with fresh media or treated with fresh media containing active or an equivalent volume of DMSO (vehicle control). Where used, Cisplatin™ was diluted to a stock concentration in Dimethylformamide (DMF), then handled as per the manufacturer's instructions. To determine relative cell viability, reagents WST-1 (Roche) or MTT (Sigma) were used as per the manufacturer's instructions and absorbance at 450 nm measured using a Victor plate reader (Perkin Elmer).

In data set [5] the test system is white blood cells. Kind of data set: White blood cells in the primary canine tissue sample. Format: cell-based. The note with it: seen under the microscope, 6 days. The source says:
(§2) Known inhibitors of protein synthesis such as hippuristanol have proven potent anti-cancer properties when used in combination with chemotherapeutic agents such as Cisplatin™ or Doxorubicin™. However hippuristanol is naturally found in coral to is scarce and expensive to obtain, furthermore it is very difficult and expensive to synthesise. […] In particular this combination has a potent effect at slowing proliferation or killing cancer cells. Slow growing and difficult to treat tumour cell types such as A549 lung cancer cells, SH-SY5Y neuroblastoma or SKOV-3 cancer cells are all sensitised by exposure to Formula II to very low doses of Cisplatin™ (FIGS. 4d, 4e, 4f and 7)—a complete kill can be achieved in both A549 and SH-SY5Y cells after a single dose treatment with g quantities of a compound of Formula II in combination with 1 μM or 2.5 μM treatments of Cisplatin™. A similar effect is observed when rapidly growing tumour cell lines or primary tumour cells (FIG. 8) are treated with a compound of Formula II and chemotherapeutics such as Cisplatin™. In this example primary tumour cells were isolated from a dog and then in vitro exposed to the compound of Formula II and Cisplatin™. […]

Data set [6] relates to primary canine histocytic sarcoma tumour cells. As to the kind of experiment: Primary canine tumour cell experiments. Format: cell-based, dog. The note with it: Cisplatin (10 μM) plus Formula II, 6 days. On the procedure:
Cells were cultured for 6 days with a single dose treatment of Cisplatin™ (10 μM) or a combination of Cisplatin™ plus a compound of Formula II (active). Images were taken after 6 days treatment and are representative of three independently treated wells. Each image (40× magnification) represents the majority of the well area and is of an equivalent area in each photograph.
as §2, with “Cisplatin™.” for “Cisplatin™. A similar effect is observed when rapidly growing tumour cell lines or primary tumour cells (FIG. 8) are treated with a compound of Formula II and chemotherapeutics such as Cisplatin™. In this example primary tumour cells were isolated from a dog and then in vitro exposed to the compound of Formula II and Cisplatin™.”

`CC/C=C\C/C=C\C/C=C\CCCCCCCC(=O)OC[C@H](COC1OC(CO)C(O)C(O)C1O)OC(=O)CCCCCCC/C=C\C/C=C\C/C=C\CC` (stereo partly drawn) [Formula II, 1,2-dioctadecatienyl-3-O-β-D-galactosyl-sn-glycerol]: the “polysome peak, number of ribosomes associated with mRNA” value in data set [1] (after treatment, 20 minutes) was determined as 3 ribosomes. For the same compound, in data set [1] (cells treated for 20 minutes, 10-50% sucrose gradients), the amount of polyribosomes result is on record as “reduction in the amount of polyribosomes”. Further, in data set [2], the “firefly luciferase reporter levels, TXN 5′UTR” value was “not inhibited”. Besides, the “firefly luciferase reporter activity, APP 5′UTR” value in data set [3] (Neuroblastoma cells transfected 24 hours prior, FIG. 3d) was “inhibited”. In addition, in data set [3] (SH-SY5Y cells, semi refined compound, FIG. 3a), the “APP 5′UTR luciferase reporter relative to Renilla luciferase reporter” value is “selective inhibition”. Further, the “growth of MCF7 cells” value in data set [4] is “slowed”. For the same compound, the “white blood cells after Cisplatin and Formula II treatment” value in data set [5] is recorded as “still alive”. In addition, the “canine tumour cells after Cisplatin plus Formula II” value in data set [6] is “substantially all tumour cells were killed”.
